Data set [1] can be described thus: Stability of calcitriol in ethanol (HPLC assay against a reference). The settings on record: 30 ppm calcitriol in absolute ethanol, 0.02% BHT. The data set is classed as physicochemical. As to the method: The stability of calcitriol was tested in various solvents, including ethanol 100 and a 75%/25% ethanol 100/cyclomethicone mixture. a) Stability of Calcitriol in Ethanol: A 30 ppm solution of calcitriol in absolute ethanol to 100% is prepared in the presence of 0.02% of butylated hydroxytoluene (BHT). At the starting time (T0) the calcitriol concentration is taken to be 100%.

A short description of data set [2]: Stability of calcitriol in the (ethanol/cyclopentasiloxane) mixture (HPLC assay against a reference). The data set is classed as physicochemical. Conditions: 30 ppm calcitriol, 0.02% BHT. As to the method:
The stability of calcitriol was tested in various solvents, including ethanol 100 and a 75%/25% ethanol 100/cyclomethicone mixture. b) Stability of Calcitriol in the (Ethanol/Cyclopentasiloxane) Mixture A 30 ppm solution of calcitriol in absolute ethanol to 100% is prepared in the presence of 0.02% of BHT. At the starting time (TO) the calcitriol concentration is taken to be 100%.

Structures are written as SMILES.

In the case of `C=C1/C(=C\C=C2/CCC[C@]3(C)[C@@H]([C@H](C)CCCC(C)(C)O)CC[C@@H]23)C[C@@H](O)C[C@@H]1O` [calcitriol], the “calcitriol concentration (T0 taken to be 100%)” value in data set [1] (+4° C., T1 week) amounted to 97.7%; in data set [1] (+4° C., T2 weeks), 98.6%; in data set [1] (+4° C., T3 weeks), 98.1%; in data set [1] (+4° C., T4 weeks), 97.7%; in data set [1] (+30° C., T2 weeks), 93.4%; in data set [1] (+30° C., T4 weeks), 93.0%. Moreover, the “calcitriol concentration (T0 taken to be 100%)” value in data set [1] (−18° C., T1 week) stood at 100.9%; in data set [1] (−18° C., T2 weeks), 100.5%; in data set [1] (−18° C., T3 weeks), 99.5%; in data set [1] (−18° C., T4 weeks) it was 99.5%; in data set [2] (+4° C., T2 weeks) it was 99.2%; in data set [2] (+4° C., T3 weeks) it was 99.6%. Besides, the “calcitriol concentration (T0 taken to be 100%)” value is listed as 97.5% in data set [2] (+4° C., T4 weeks); 93.8% in data set [2] (+30° C., T2 weeks); 93.3% in data set [2] (+30° C., T4 weeks); 100.4% in data set [2] (−18° C., T2 weeks); 101.3% in data set [2] (−18° C., T3 weeks); 99.2% in data set [2] (−18° C., T4 weeks).

Values taken from patent US20050282788A1, “Pharmaceutical compositions comprising silicones and two solubilized active principles” (GALDERMA S.A., priority 2004, published 2005).
